According to ChEMBL document CHEMBL5230096, “A comprehensive insight on the recent development of Cyclic Dependent Kinase inhibitors as anticancer agents” (Eur J Med Chem, 2020):
Values belong to the compound of their own block, whether it stands above or below them.

How the values were obtained:
[1] = target: Cyclin-dependent kinase 9 (Homo sapiens, UniProt P50750); assay: Inhibition of CDK9 (unknown origin) using TMB as substrate by spectrophotometric analysis
HCT-116 [2] = assay: Antiproliferative activity against human HCT-116 cells assessed as reduction in cell viability incubated for 72 hrs by MTT assay; format: functional, cell-based; conditions: HCT-116, 72 h
HL-60 = assay: Antiproliferative activity against human HL-60 cells assessed as reduction in cell viability incubated for 72 hrs by MTT assay; format: functional, cell-based; conditions: HL-60, 72 h
CDK2/Cyclin A2 = CDK2/Cyclin A2 (Homo sapiens, UniProt P24941); assay: Inhibition of CDK2/cyclin A2 (unknown origin) expressed in baculovirus expression system incubated for 1 hr using Ser/Thr12 Peptide as substrate in presence of ATP by Z-LYTE kinase assay
A549 [3] = assay: Antiproliferative activity against human A549 cells assessed as reduction in cell viability incubated for 72 hrs by MTT assay; format: functional, cell-based; conditions: A549, 72 h
A549 [4] = assay: Antitumor activity against human A549 cells assessed as reduction in cell viability by MTT assay; format: functional, cell-based
[5] = target: Cyclin-dependent kinase 4 (Homo sapiens, UniProt P11802); assay: Inhibition of CDK4 (unknown origin) by kinase assay
Sequence of Cyclin-dependent kinase 4 (P11802 whole entry): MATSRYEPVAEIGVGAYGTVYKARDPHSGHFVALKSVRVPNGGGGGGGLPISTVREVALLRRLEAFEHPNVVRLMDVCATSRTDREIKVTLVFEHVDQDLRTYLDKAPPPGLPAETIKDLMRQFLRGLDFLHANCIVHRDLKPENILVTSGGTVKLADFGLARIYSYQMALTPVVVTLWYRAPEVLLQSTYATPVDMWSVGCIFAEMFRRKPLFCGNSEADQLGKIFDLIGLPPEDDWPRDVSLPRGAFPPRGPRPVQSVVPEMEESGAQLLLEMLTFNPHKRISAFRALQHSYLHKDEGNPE

Bel-7402 = assay: Antitumor activity against human Bel-7402 cells assessed as reduction in cell viability by MTT assay; format: functional, cell-based
LS174T = assay: Antitumor activity against human LS174T cells assessed as reduction in cell viability by MTT assay; format: functional, cell-based
HeLa [6] = assay: Antitumor activity against human HeLa cells assessed as reduction in cell viability by MTT assay; format: functional, cell-based
NCI-H522 = assay: Cytotoxicity against human NCI-H522 cells assessed cell growth inhibition incubated for 2 days by MTT assay; format: functional, cell-based; conditions: NCI-H522, 48 h
[7] = target: Cyclin-dependent kinase 2 (Homo sapiens, UniProt P24941); assay: Inhibition of CDK2 (unknown origin) incubated for 10 min using histone H1 as substrate in presence of gamma32P-ATP by radioactive assay
[8] = Cytotoxicity against human L02 cells assessed cell growth inhibition incubated for 2 days by MTT assay; format: toxicity, cell-based
[9] = Cytotoxicity against human U87 cells assessed cell growth inhibition incubated for 2 days by MTT assay; format: functional, cell-based, U-87MG ATCC; conditions: U-87 MG, 48 h
[10] = AUC in Balb/c mouse at 10 mg/kg,po and measured upto 24 hrs by LC/MS/MS analysis; format: ADME, organism-based; set-up: time < 24 hrs, dose 10 mg/kg, route po; conditions: in vivo
MDA-MB-453 = assay: Antiproliferative activity against human MDA-MB-453 cells assessed as cell growth inhibition incubated for 72 hrs by MTT assay; format: functional
[11] = AUC in Wistar rat at 20 mg/kg,po and measured upto 24 hrs by LC/MS/MS analysis; format: ADME, organism-based; set-up: time < 24 hrs, dose 20 mg/kg, route po; conditions: in vivo
MV4-11 = assay: Antiproliferative activity against human MV4-11 cells assessed as cell growth inhibition incubated for 72 hrs by resazurin assay; format: functional
CCRF-CEM = assay: Cytotoxicity against human CEM cells assessed as reduction in cell growth incubated for 72 hrs by Calcein AM assay; format: functional, cell-based
HOS = assay: Cytotoxicity against human HOS cells assessed as reduction in cell growth incubated for 72 hrs by Calcein AM assay; format: functional, cell-based
HeLa [12] = assay: Cytotoxicity against human HeLa cells assessed as reduction in cell growth incubated for 72 hrs by Calcein AM assay; format: functional, cell-based
U-266 = assay: Cytotoxicity against human U-266 cells assessed as reduction in cell growth incubated for 72 hrs by Calcein AM assay; format: functional, cell-based; conditions: U-266, 72 h
G-361 = assay: Cytotoxicity against human G-361 cells assessed as reduction in cell growth incubated for 72 hrs by Calcein AM assay; format: functional, cell-based; conditions: G-361, 72 h
RPMI-8226 = assay: Cytotoxicity against human RPMI-8226 cells assessed as reduction in cell growth incubated for 72 hrs by Calcein AM assay; format: functional, cell-based; conditions: RPMI-8226, 72 h
MCF7 = assay: Cytotoxicity against human MCF7 cells assessed as reduction in cell growth incubated for 72 hrs by Calcein AM assay; format: functional, cell-based; conditions: MCF7, 72 h
HCT-116 [13] = assay: Cytotoxicity against human HCT-116 cells assessed as reduction in cell growth incubated for 72 hrs by Calcein AM assay; format: functional, cell-based; conditions: HCT-116, 72 h
HT-29 = assay: Cytotoxicity against human HT-29 cells assessed as reduction in cell growth incubated for 72 hrs by Calcein AM assay; format: functional, cell-based; conditions: HT-29, 72 h
K562 = assay: Cytotoxicity against human K562 cells assessed as reduction in cell growth incubated for 72 hrs by Calcein AM assay; format: functional, cell-based; conditions: K562, 72 h
MDA-MB-468 = assay: Cytotoxicity against human MDA-MB-468 cells assessed as reduction in cell growth incubated for 72 hrs by Calcein AM assay; format: functional, cell-based; conditions: MDA-MB-468, 72 h
[14] = Cytotoxicity against human L02 cells assessed as inhibition of cell viability incubated for 72 hrs by MTT assay; format: toxicity, cell-based
[15] = target: Protein cereblon/Cyclin-dependent kinase 4 (Homo sapiens, UniProt P11802+Q96SW2); assay: Protac activity at CRBN/CDK4 in human MDA-MB-231 cells assessed as CDK4 degradation incubated for 18 hrs by Western blot analysis; format: cell-based
Sequence of Protein cereblon/Cyclin-dependent kinase 4 (P11802 whole entry): as above
Sequence of Protein cereblon/Cyclin-dependent kinase 4 (Q96SW2 whole entry): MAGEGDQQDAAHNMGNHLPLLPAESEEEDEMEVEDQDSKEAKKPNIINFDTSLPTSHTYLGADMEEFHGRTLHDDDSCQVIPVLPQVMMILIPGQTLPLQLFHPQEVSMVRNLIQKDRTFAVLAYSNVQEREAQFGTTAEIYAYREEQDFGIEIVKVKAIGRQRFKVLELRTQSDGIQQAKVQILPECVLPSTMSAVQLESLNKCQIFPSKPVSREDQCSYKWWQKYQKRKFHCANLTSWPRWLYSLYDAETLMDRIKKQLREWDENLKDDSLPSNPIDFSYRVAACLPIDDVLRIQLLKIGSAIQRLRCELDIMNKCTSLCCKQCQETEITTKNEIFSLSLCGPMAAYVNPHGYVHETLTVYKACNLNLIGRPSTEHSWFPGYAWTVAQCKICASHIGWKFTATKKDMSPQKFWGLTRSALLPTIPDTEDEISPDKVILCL

[16] = target: Protein cereblon/Cyclin-dependent kinase 6 (Homo sapiens, UniProt Q00534+Q96SW2); assay: Protac activity at CRBN/CDK6 in human MDA-MB-231 cells assessed as CDK6 degradation incubated for 18 hrs by Western blot analysis; format: cell-based
Sequence of Protein cereblon/Cyclin-dependent kinase 6 (Q00534 whole entry): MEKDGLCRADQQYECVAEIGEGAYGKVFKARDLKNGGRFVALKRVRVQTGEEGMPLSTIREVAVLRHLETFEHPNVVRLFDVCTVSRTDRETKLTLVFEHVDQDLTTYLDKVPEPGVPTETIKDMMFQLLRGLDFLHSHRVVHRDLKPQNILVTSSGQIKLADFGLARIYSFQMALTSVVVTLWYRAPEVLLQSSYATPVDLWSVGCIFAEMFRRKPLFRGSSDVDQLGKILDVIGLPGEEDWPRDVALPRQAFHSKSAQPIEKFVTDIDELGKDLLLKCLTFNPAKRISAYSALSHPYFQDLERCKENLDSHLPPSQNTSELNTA
Sequence of Protein cereblon/Cyclin-dependent kinase 6 (Q96SW2 whole entry): as the sequence (Q96SW2 whole entry) above

Sequence of Cyclin-dependent kinase 9 (P50750 whole entry): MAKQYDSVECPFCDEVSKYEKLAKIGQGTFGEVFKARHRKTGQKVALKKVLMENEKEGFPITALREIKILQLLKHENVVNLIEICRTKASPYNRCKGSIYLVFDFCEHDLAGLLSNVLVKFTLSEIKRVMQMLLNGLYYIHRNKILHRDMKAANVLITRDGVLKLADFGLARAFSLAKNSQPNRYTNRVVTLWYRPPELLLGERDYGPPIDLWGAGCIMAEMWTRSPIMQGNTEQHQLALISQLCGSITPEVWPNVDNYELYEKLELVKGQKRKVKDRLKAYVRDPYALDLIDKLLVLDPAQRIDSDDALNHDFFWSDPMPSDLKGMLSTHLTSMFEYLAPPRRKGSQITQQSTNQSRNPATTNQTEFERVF

- IC50 [1]: 0.5 µM
Compound: O=C1N=NC(=O)/C(=C\Nc2ccc(-c3nc4ncccc4[nH]3)cc2)C(=O)N1

- IC50 (HCT-116 [2]): 1.56 µM
- IC50 (HL-60): 3.71 µM
- IC50 (CDK2/Cyclin A2): 0.021 µM
- IC50 (A549 [3]): 3.85 µM
Compound: CCC(CO)Nc1nc(NCc2ccccn2)c2ncn(CC)c2c1[N+](=O)[O-] (configuration not stated)

- IC50 (A549 [4]): 16 µM
- IC50 [5]: 10 µM
- IC50 (Bel-7402): 14 µM
- IC50 (HeLa [6]): 25 µM
Compound: CN(Cc1ccccc1)C(=O)CCc1c[nH]c2ccccc12
- IC50 (LS174T): 11 µM

- IC50 [7]: 1.8 µM
Compound: Nc1c([N+](=O)[O-])cnc(NC2CCCCC2)c1[N+](=O)[O-]
- IC50 (NCI-H522): 2.89 µM
- IC50 at 2 days [8]: 86.7 µM
- IC50 [9]: 3.19 µM

- AUC at 24 h [10]: 4.3 µM·h
- GI50 (MDA-MB-453): 0.325 µM
- AUC at 24 h [11]: 4.4 µM·h
- GI50 (MV4-11): 0.107 µM
Compound: CNc1nc(C)c(-c2nc(Nc3ccc(N4CCC(N(C)C)CC4)cn3)ncc2F)s1

Compound: CC[C@H](CO)Nc1nc(NCc2ccccc2N)c2[nH]nc(C(C)C)c2n1
- IC50 (CCRF-CEM): 5 µM
- IC50 (HOS): 5 µM
- IC50 (HeLa [12]): 5 µM
- IC50 (U-266): 5 µM
- IC50 (G-361): 5 µM
- IC50 (RPMI-8226): 5 µM
- IC50 (MCF7): 5 µM
- IC50 (HCT-116 [13]): 5 µM
- IC50 (HT-29): 5 µM
- IC50 (K562): 5 µM
- IC50 (MDA-MB-468): 5 µM

Compound: O=C1CCC(N2C(=O)c3cccc(NC(=O)CCCCCCCn4cc(COc5c(O)cc(O)c6c(=O)cc(-c7ccccc7)oc56)nn4)c3C2=O)C(=O)N1 (configuration not stated)
- IC50 at 72 hrs [14]: > 100 µM

- DC50 [15]: 0.02 µM
- DC50 [16]: 0.02 µM
Compound: CC(=O)c1c(C)c2cnc(Nc3ccc(N4CCN(Cc5cn(CCCCCC(=O)Nc6cccc7c6C(=O)N(C6CCC(=O)NC6=O)C7=O)nn5)CC4)cn3)nc2n(C2CCCC2)c1=O (configuration not stated)
